These results are taken from publication PMC12226733, “Evolution of iGluR ligand specificity, polyamine regulation, and ion selectivity inferred from a placozoan epsilon receptor” (Communications Biology, 2025).

The target in test [1] is T1, GluE1αA S642N (Trichoplax adhaerens, UniProt B3SAW0, S167N).
T1 sequence (B3SAW0 1-341 S167N): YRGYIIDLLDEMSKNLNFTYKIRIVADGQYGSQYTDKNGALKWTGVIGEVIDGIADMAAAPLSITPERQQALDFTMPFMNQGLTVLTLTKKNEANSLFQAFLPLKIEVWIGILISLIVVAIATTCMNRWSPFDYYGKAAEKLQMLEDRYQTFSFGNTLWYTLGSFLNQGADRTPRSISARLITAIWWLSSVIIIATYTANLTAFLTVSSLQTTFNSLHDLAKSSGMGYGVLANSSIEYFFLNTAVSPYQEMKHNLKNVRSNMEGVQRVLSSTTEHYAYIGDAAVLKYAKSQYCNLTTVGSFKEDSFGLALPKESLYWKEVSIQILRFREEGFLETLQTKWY
The test is classed as cell-based.

The target in test [2] is T2, GluE1αA S642Q (Trichoplax adhaerens, UniProt B3SAW0, S167Q).
T2 sequence (B3SAW0 1-341 S167Q): T1 sequence (B3SAW0 1-341 S167N) with N167Q
The test is classed as cell-based.

Test [3] relates to GluE1αA S642Q plus D646A. The test is classed as cell-based, Trichoplax adhaerens.
Test [4] deals with GluE1αA D646A. It counts as cell-based, Trichoplax adhaerens.
For test [5], the system named is GluE1αA wildtype. It counts as cell-based, Trichoplax adhaerens.
The subject of test [6] is GluE1αA wildtype. It counts as cell-based, Trichoplax adhaerens. The source holds these as a separate data set.
In test [7] the test system is GluE1αA S642Q plus D646A. It counts as cell-based, Trichoplax adhaerens. This is another data set of the same source.
The target of test [8] is T2, GluE1αA S642Q. It counts as cell-based. The source holds these as a separate data set.
Test [9] has as its target T1, GluE1αA S642N. The test is classed as cell-based. This is another data set of the same source.
The test system of test [10] is GluE1αA D646A. It counts as cell-based, Trichoplax adhaerens. This is another data set of the same source.
The subject of test [11] is GluE1αA S642R. It counts as cell-based, Trichoplax adhaerens.
In test [12] the test system is GluE1αA S642R. The test is classed as cell-based, Trichoplax adhaerens. This is another data set of the same source.

The structures appear in SMILES notation. Numbering of substitutions follows the chain as printed. “And” between values parts separate entries of the source, which are not always exact repeats. Identical values can stand only once.

In the case of `[Cs+]` [Cs], the pCs/pNa was 1.10 and 1.06 and 1.08 and 0.97 and 0.98 and 0.82 on GluE1αA S642N [1]; 0.77 and 1.08 and 1.06 and 1.15 and 1.01 and 1.25 at GluE1αA S642Q [2]; 1.01 and 0.96 and 0.98 and 0.97 and 1.08 in the test on GluE1αA D646A [4]; 0.95 and 0.96 and 0.99 and 0.93 and 0.92 in the test with GluE1αA wildtype [6]; 1.15 and 1.09 and 1.10 and 1.24 and 1.08 and 1.02 in the test on GluE1αA S642Q plus D646A [7]; 0.92 and 0.78 and 0.83 and 0.84 and 0.81 and 0.79 and 0.82 with GluE1αA S642R [11]. The “Cs vs Ca, Avg (Figure S8e, normalized G-V)” value is 1.00 and 1.03 and 0.98 and 1.02 and 1.15 and 1.27 and 1.40 and 1.41 with GluE1αA S642Q plus D646A [3]; 1.00 and 0.97 and 0.90 and 0.81 and 0.79 and 0.75 and 0.88 in the test on GluE1αA D646A [10]. In addition, the pCs/pCa with GluE1αA S642Q plus D646A [3] is 7.48 and 6.98 and 7.28 and 7.47 and 4.49 and 4.01 and 6.97 and 6.40; in the test with GluE1αA wildtype [5], 1.08 and 0.98 and 1.16 and 1.36 and 1.19 and 1.14; on GluE1αA S642Q [8], 8.99 and 7.25 and 7.15 and 8.09 and 7.84 and 7.74 and 7.89; at GluE1αA S642N [9], 5.26 and 5.24 and 5.82 and 3.13 and 4.33 and 4.04; in the test with GluE1αA D646A [10], 1.12 and 1.10 and 0.98 and 1.02 and 1.05 and 0.97; with GluE1αA S642R [12] it was 2.85 and 2.43 and 1.93 and 2.69 and 2.80 and 3.78. Also, the “Avg of recordings (Figure S7c, G-V, normalized)” value with GluE1αA wildtype [6] is 0.58 and 0.69 and 0.78 and 0.80 and 1.00 and 0.93 and 0.77 and 0.60.
